Experimental data taken from article PMC10215352 (Biology, 2023).
Peptide text beside a SMILES is read from it.

What was measured:
Type in all cases: cell-based
YdgR [1] = biological target: T1, YdgR (Escherichia coli, UniProt P77304); assay: inhibition of β-Ala-Lys-AMCA uptake in E. coli; details: 10 mM peptide, 0.5 mM labelled substrate β-Ala-Lys-AMCA, pH 6.5, 37 °C; competing substrate
T1 construct: gene dtpA; full-length, C-terminal His6 tag, expressed in E. coli BL21(DE3) pLysS, whole-cell uptake
T1 sequence (P77304 1-500): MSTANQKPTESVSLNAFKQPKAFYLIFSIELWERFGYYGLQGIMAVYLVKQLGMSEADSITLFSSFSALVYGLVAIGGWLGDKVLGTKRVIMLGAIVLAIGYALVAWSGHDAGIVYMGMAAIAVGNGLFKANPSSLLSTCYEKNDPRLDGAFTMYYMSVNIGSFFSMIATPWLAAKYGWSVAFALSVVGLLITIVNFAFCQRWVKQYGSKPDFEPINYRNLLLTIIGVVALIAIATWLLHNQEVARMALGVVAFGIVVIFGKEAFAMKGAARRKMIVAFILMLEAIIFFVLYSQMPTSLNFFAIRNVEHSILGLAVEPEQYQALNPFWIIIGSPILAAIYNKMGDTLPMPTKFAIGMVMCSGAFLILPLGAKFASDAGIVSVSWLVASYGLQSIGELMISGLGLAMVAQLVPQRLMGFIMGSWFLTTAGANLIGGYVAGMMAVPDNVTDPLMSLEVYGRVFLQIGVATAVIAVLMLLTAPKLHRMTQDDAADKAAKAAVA

YjdL = biological target: T2, YjdL (Escherichia coli, UniProt P39276); assay: fluorescent uptake in E. coli; details: 0.5 mM, labelled compound, cells preloaded with AA, with and without CCCP, 37 °C
T2 construct: gene dtpC; full-length, C-terminal His6 tag, expressed in E. coli BL21(DE3) pLysS, whole-cell uptake
T2 sequence (P39276 1-485): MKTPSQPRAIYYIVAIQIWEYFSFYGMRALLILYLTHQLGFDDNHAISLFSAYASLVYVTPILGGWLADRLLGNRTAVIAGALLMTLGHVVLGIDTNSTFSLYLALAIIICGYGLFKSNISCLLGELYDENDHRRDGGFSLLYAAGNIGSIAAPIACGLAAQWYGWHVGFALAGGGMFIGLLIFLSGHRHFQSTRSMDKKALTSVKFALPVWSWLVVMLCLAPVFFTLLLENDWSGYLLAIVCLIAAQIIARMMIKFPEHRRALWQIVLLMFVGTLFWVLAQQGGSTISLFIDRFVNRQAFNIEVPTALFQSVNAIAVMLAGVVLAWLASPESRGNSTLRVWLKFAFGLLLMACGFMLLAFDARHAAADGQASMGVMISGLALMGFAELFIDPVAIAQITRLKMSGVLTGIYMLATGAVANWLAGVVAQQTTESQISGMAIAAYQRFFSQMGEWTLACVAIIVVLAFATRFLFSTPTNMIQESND

YdgR [2] = biological target: T1, YdgR; assay: fluorescent uptake in E. coli; details: 0.5 mM, labelled compound, pH 6.5, 37 °C

## C[C@H](N)C(=O)N[C@@H](C)C(=O)O [AA] (H-Ala-Ala-OH)
YdgR [1]
  uptake inhibition: its uptake was significantly decreased in the presence of AA and AAA

## Cc1c(CC(=O)NCCCC[C@H](NC(=O)CCN)C(=O)O)c(=O)oc2cc(N)ccc12 [β-Ala-Lys-AMCA]
YjdL
  fluorescent uptake in E. coli: YjdL and YdgR exhibited a significant decline in uptake activity in the presence of CCCP
YdgR [2]
  fluorescent uptake in E. coli: Overall β-Ala-Lys-AMCA uptake by CPEPOT was significantly lower than YdgR
